Reference: BindingDB's records for doi:10.1007/bf00175797 (Pharmakologisches Institut, Heidelberg, 1988)

Molecular target: Adenosine receptor A2a (Rattus norvegicus, UniProt P30543)
Sequence (P30543 whole entry): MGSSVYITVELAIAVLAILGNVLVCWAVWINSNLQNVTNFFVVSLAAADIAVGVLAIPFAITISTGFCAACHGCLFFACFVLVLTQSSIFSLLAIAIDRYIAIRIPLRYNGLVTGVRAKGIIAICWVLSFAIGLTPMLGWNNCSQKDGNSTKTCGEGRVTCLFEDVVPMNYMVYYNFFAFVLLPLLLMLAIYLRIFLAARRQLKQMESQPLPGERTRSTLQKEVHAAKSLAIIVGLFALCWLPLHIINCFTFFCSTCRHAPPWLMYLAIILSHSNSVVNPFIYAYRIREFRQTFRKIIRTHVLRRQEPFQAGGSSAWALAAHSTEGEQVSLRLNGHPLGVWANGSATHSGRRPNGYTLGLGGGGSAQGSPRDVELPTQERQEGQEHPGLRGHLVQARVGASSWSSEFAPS

Q: With `OC[C@H]1O[C@@H](n2cnc3c(NC4CCCC4)ncnc32)[C@H](O)[C@@H]1O` as the molecule, how does the Ki read?
A: The Ki was 2000 nM.
